Species on record: Rattus norvegicus
Assay: DrugMatrix - Regimen: Daily Repeat
Type: toxicity, organism-based, Sprague-Dawley
Design: regimen Daily Repeat, gender Male, age 6-8 weeks
Details: in vivo, po, 2000 mg/kg, route oral GAVAGE, dose level High, vehicle .5 % CMC; for ABSOLUTE BASOPHIL / ABSOLUTE EOSINOPHIL / ABSOLUTE LYMPHOCYTE / ABSOLUTE MONOCYTE / ABSOLUTE SEGMENTED NEUTROPHIL / BASOPHIL / EOSINOPHIL / ERYTHROCYTE COUNT / HEMATOCRIT / HEMOGLOBIN / LEUKOCYTE COUNT / LYMPHOCYTE / MEAN CORPUSCULAR HEMOGLOBIN / MEAN CORPUSCULAR HEMOGLOBIN CONCENTRATION / MEAN CORPUSCULAR VOLUME / MONOCYTE / NEUTROPHIL / NUCLEATED RED BLOOD CELLS / PLATELET COUNT: tissue Blood; for ALANINE AMINOTRANSFERASE / ALBUMIN / ALKALINE PHOSPHATASE / ASPARTATE AMINOTRANSFERASE / BLOOD UREA NITROGEN / CARBON DIOXIDE / CHLORIDE / CHOLESTEROL / CREATINE PHOSPHOKINASE / CREATININE / GLUCOSE / LACTATE DEHYDROGENASE / LIPASE / PHOSPHORUS / SODIUM / TOTAL BILIRUBIN / TOTAL PROTEIN / URIC ACID: tissue Plasma

`NCCCC[C@H](N[C@@H](CCc1ccccc1)C(=O)O)C(=O)N1CCC[C@H]1C(=O)O` [LISINOPRIL ANHYDROUS] was tested, and the “ABSOLUTE BASOPHIL” value (72 h, time 3 day) was 0 CELLS/uL, the “ABSOLUTE EOSINOPHIL” value (72 h, time 3 day) was 42.33 CELLS/uL and the “ABSOLUTE LYMPHOCYTE” value (72 h, time 3 day) was 11490 CELLS/uL. The “ABSOLUTE MONOCYTE” value (72 h, time 3 day) was 124.67 CELLS/uL, the “ABSOLUTE SEGMENTED NEUTROPHIL” value (72 h, time 3 day) was 1076.33 CELLS/uL and the BASOPHIL (72 h, time 3 day) was 0%. For the same molecule, the EOSINOPHIL (72 h, time 3 day) was 0.33%, the “ERYTHROCYTE COUNT” value (72 h, time 3 day) was 5.63 x10E6/uL and the HEMATOCRIT (72 h, time 3 day) was 33.57%. For the same molecule, the HEMOGLOBIN (72 h, time 3 day) was 13.17 G/DL, the “LEUKOCYTE COUNT” value (72 h, time 3 day) was 12.73 x10E3/uL and the LYMPHOCYTE (72 h, time 3 day) was 90%. For the same molecule, the “MEAN CORPUSCULAR HEMOGLOBIN” value (72 h, time 3 day) was 23.43 pg, the “MEAN CORPUSCULAR HEMOGLOBIN CONCENTRATION” value (72 h, time 3 day) was 39.27 G/DL and the “MEAN CORPUSCULAR VOLUME” value (72 h, time 3 day) was 59.63 fL. For the same molecule, the MONOCYTE (72 h, time 3 day) was 1%, the NEUTROPHIL (72 h, time 3 day) was 8.67% and the “NUCLEATED RED BLOOD CELLS” value (72 h, time 3 day) was 0 /100WBC. For the same molecule, the “PLATELET COUNT” value (72 h, time 3 day) was 1324.33 x10E3/uL, the “ALANINE AMINOTRANSFERASE” value (72 h, time 3 day) was 40.33 u/L and the ALBUMIN (72 h, time 3 day) was 4.03 G/DL. For the same molecule, the “ALKALINE PHOSPHATASE” value (72 h, time 3 day) was 322.67 u/L, the “ASPARTATE AMINOTRANSFERASE” value (72 h, time 3 day) was 68 u/L and the “BLOOD UREA NITROGEN” value (72 h, time 3 day) was 26.67 mg/dL. For the same molecule, the “CARBON DIOXIDE” value (72 h, time 3 day) was 24.67 mmol/L, the CHLORIDE (72 h, time 3 day) was 101.33 MEQ/L and the CHOLESTEROL (72 h, time 3 day) was 71.67 mg/dL. For the same molecule, the “CREATINE PHOSPHOKINASE” value (72 h, time 3 day) was 262 u/L, the CREATININE (72 h, time 3 day) was 0.29 mg/dL and the GLUCOSE (72 h, time 3 day) was 155 mg/dL. The “LACTATE DEHYDROGENASE” value (72 h, time 3 day) was 122.67 u/L, the LIPASE (72 h, time 3 day) was 9.67 u/L and the PHOSPHORUS (72 h, time 3 day) was 11.5 mg/dL. The SODIUM (72 h, time 3 day) was 141.1 MEQ/L, the “TOTAL BILIRUBIN” value (72 h, time 3 day) was 0.13 mg/dL and the “TOTAL PROTEIN” value (72 h, time 3 day) was 5.77 G/DL. The “URIC ACID” value (72 h, time 3 day) was 1.53 mg/dL, the “ABSOLUTE BASOPHIL” value (120 h, time 5 day) was 0 CELLS/uL and the “ABSOLUTE EOSINOPHIL” value (120 h, time 5 day) was 43.33 CELLS/uL. The “ABSOLUTE LYMPHOCYTE” value (120 h, time 5 day) was 10946.67 CELLS/uL, the “ABSOLUTE MONOCYTE” value (120 h, time 5 day) was 86.67 CELLS/uL and the “ABSOLUTE SEGMENTED NEUTROPHIL” value (120 h, time 5 day) was 1123.33 CELLS/uL. The BASOPHIL (120 h, time 5 day) was 0%, the EOSINOPHIL (120 h, time 5 day) was 0.33% and the “ERYTHROCYTE COUNT” value (120 h, time 5 day) was 5.62 x10E6/uL. For the same molecule, the HEMATOCRIT (120 h, time 5 day) was 34.17%, the HEMOGLOBIN (120 h, time 5 day) was 13.67 G/DL and the “LEUKOCYTE COUNT” value (120 h, time 5 day) was 12.2 x10E3/uL. The LYMPHOCYTE (120 h, time 5 day) was 89.67%, the “MEAN CORPUSCULAR HEMOGLOBIN” value (120 h, time 5 day) was 24.37 pg and the “MEAN CORPUSCULAR HEMOGLOBIN CONCENTRATION” value (120 h, time 5 day) was 40 G/DL. For the same molecule, the “MEAN CORPUSCULAR VOLUME” value (120 h, time 5 day) was 60.8 fL, the MONOCYTE (120 h, time 5 day) was 0.67% and the NEUTROPHIL (120 h, time 5 day) was 9.33%. The “NUCLEATED RED BLOOD CELLS” value (120 h, time 5 day) was 0 /100WBC, the “PLATELET COUNT” value (120 h, time 5 day) was 1374 x10E3/uL and the “ALANINE AMINOTRANSFERASE” value (120 h, time 5 day) was 43.33 u/L. The ALBUMIN (120 h, time 5 day) was 4.17 G/DL, the “ALKALINE PHOSPHATASE” value (120 h, time 5 day) was 336.33 u/L and the “ASPARTATE AMINOTRANSFERASE” value (120 h, time 5 day) was 74 u/L. For the same molecule, the “BLOOD UREA NITROGEN” value (120 h, time 5 day) was 29.67 mg/dL, the “CARBON DIOXIDE” value (120 h, time 5 day) was 22.67 mmol/L and the CHLORIDE (120 h, time 5 day) was 103 MEQ/L. The CHOLESTEROL (120 h, time 5 day) was 72 mg/dL, the “CREATINE PHOSPHOKINASE” value (120 h, time 5 day) was 214 u/L and the CREATININE (120 h, time 5 day) was 0.25 mg/dL. The GLUCOSE (120 h, time 5 day) was 167.67 mg/dL, the “LACTATE DEHYDROGENASE” value (120 h, time 5 day) was 146.33 u/L and the LIPASE (120 h, time 5 day) was 9.67 u/L. The PHOSPHORUS (120 h, time 5 day) was 10.97 mg/dL, the SODIUM (120 h, time 5 day) was 141.47 MEQ/L and the “TOTAL BILIRUBIN” value (120 h, time 5 day) was 0.13 mg/dL. The “TOTAL PROTEIN” value (120 h, time 5 day) was 5.97 G/DL and the “URIC ACID” value (120 h, time 5 day) was 1.9 mg/dL.

Source: ChEMBL document CHEMBL3885881, “DrugMatrix”
